In one series the target is Y78F-TTR (Homo sapiens, UniProt P02766, Y98F). Description: Y78F-TTR aggregation inhibition, turbidity at 340 nm, pH 4.2.
Series [1] relates to Rat Schwannoma cells (RN22). Nature of the series: Caspase-3 activation by Y78F-TTR oligomers in RN22 cells. To be noted: Y78F-TTR aggregates 2 μM formed with 20 μM compound; 24 h exposure.
Series [2] has as its system T1, TTR in human plasma (WT-TTR and V30M-TTR).
T1 construct: human plasma from a normal (WT-TTR) and from an FAP patient carrying the V30M-TTR mutation; from tissue; host or cells: human plasma of normal donors and of V30M-TTR carriers
Nature of the series: [125I]T4 competition in human plasma, native gel electrophoresis. The format is binding. The settings on record: 1 mM; plasma from normal (WT-TTR) and V30M-TTR FAP patient; 1 h RT. The text has this: Error bars indicate s.e.m. (n=3). […] Error bars indicate s.e.m. (n=3).

Series [3] concerns TTR. Details: method as in Vyndaqel European Public Assessment Report (EMA/815723/2011). The settings on record: single dose of 120 mg; ref Vyndaqel European Public Assessment Report (EMA/815723/2011); cited from earlier work.
The next series deals with V122I-TTR. More on the design: method as in PMID 23716704. To be noted: subunit exchange assays; cited from earlier work.
Details of series [4]: method as in Vyndaqel European Public Assessment Report (EMA/815723/2011). To be noted: single dose of 120 mg; ref Vyndaqel European Public Assessment Report (EMA/815723/2011); cited from earlier work.
The next series deals with AC16 cells. Description: TTR-induced cytotoxicity in AC16 cells, resazurin reduction assay. The settings on record: 16 μM compound, 8 μM TTR; 24 h. It is filed as cell-based, human. The text has this:
Error bars indicate s.e.m. […] Error bars indicate s.e.m. (n=4). […] Error bars indicate s.e.m. (n=3).

Series [5] relates to WT and V30M-TTR tetramers in plasma. Description: TTR tetramer stability in human plasma by IEF under semi-denaturing conditions. The format is biochemical. The settings on record: 1.4 mM, overnight 4 °C, 4 M urea.
The subject of a further series is T2, L55P-TTR.
T2 construct: TTR is composed of four identical 127 amino-acid residue β-sheet-rich subunits; expressed in transfected cells; host or cells: rat Schwannoma RN22 cells, metallothionein promoter, ZnSO4 induction
Nature of the series: Dot-blot filter assay of L55P-TTR aggregation secreted by RN22 cells. It is filed as cell-based, human. To be noted: 1 μM in the medium. The procedure: The extent of extracellular L55P-TTR aggregation was monitored by a filter trap assay followed by TTR immunodetection.
The rat Schwannoma cell line RN22 stably co-transfected with TTR L55P cDNA under the control of the metallothionein promoter was used to test the inhibitors of TTR aggregation as in ref. [51]. […] TTR in the medium was quantified by ELISA, and the volume of medium corresponding to 500 ng of TTR was applied on to a 0.2-μm pore cellulose acetate membrane filter (Schleicher and Schuell) using a manifold system (Gibco BRL) to separate soluble proteins from aggregates. […] Detection was performed with ECL (GE Healthcare). Dot blot quantification was performed using the ImageQuant program. The percentage of aggregation inhibition was calculated as 100 × ((Control—Treated)/Control). Experiments were repeated three times in triplicate.

On the set-up of series [6]: method as in PMID 17107884. The settings on record: cited from earlier work.
The next series has as its system FAP. More on the design: method as in PMID 24368466. The settings on record: patients with FAP, 2 years treatment; cited from earlier work.
Series [7] concerns the target TTR. Details: method as in PMID 14968122. The settings on record: cited from earlier work.

SMILES strings stand for the structures. Like-named read-outs stand apart in the source and are kept apart here.

On to `O=C(O)c1ccc2nc(-c3cc(Cl)cc(Cl)c3)oc2c1` [tafamidis], for which the “RA (%): percent reduction of TTR aggregation rate at high inhibitor concentration” value on Y78F-TTR stood at 59.57%. For the same compound, the “reduction in Caspase-3 activation” value in series [1] is recorded as 11.6%±4.0. Moreover, the “radioactive T4-TTR band in the presence of compound” value in [2] is “no longer visible”. Moreover, the “average percent stabilization of TTR” value with TTR [3] is on record as 189%. Also, the Kd2 estimate result on V122I-TTR is “in the μM range”. Besides, the “average concentration in plasma at Tmax” value in series [4] is 14.4 µM. Besides, the “effect on WT-TTR and V122I-TTR induced reduction in cell viability” value with AC16 cells is on record as “rescued this toxic effect”. For the same compound, in series [5], the “TTR tetramer stabilization in plasma” value was “stabilized WT and V30M-TTR tetramers in plasma”. For the same compound, the “reduction of L55P-TTR aggregation compared with untreated cells” value in the series on L55P-TTR is recorded as approximately 90%.

Regarding `O=C(O)c1cc(-c2ccc(F)cc2F)ccc1O` [diflunisal], in series [6], the “concentration in serum after oral administration” value was more than 140 µM. In addition, in the series on FAP, the “effect on progression of neurological impairment” value is “reduced the rate of progression of neurological impairment”. The results for the Kd on TTR [7] (read-out: Kd1) and on TTR [7] (read-out: Kd2) were 0.075 µM and 1.1 µM, respectively.

Source of the values: PMC4766415 (Nature Communications, 2016).
